# Results as given in patent publication US20090270452A1, “USE OF SOLUBLE EPOXIDE HYDROLASE INHIBITORS IN THE TREATMENT OF SMOOTH MUSCLE DISORDERS” (Arete Therapeutics, Inc., priority 2008, published 2009).
# Assays:
# [1] = tested on: rabbit corpus cavernosum smooth muscle strips; experiment: Relaxation of isolated rabbit corpus cavernosum smooth muscle strips (pressure transducer); assay type: cell-based; conditions: 10 minutes
# Description: A study was performed using freshly isolated rabbit corpus cavernosum smooth muscle strips attached to a pressure transducer in a temperature controlled bath, to evaluate the efficacy of 1-adamantyl-3-(1-(methylsulfonyl)piperidin-4-yl)urea (Compound 1) for the treatment of erectile dysfunction.
# The isolated rabbit corpus cavernosum strips were exposed to Compound 1 and/or 14,15-epoxyeicosatrienoic acid (14,15-EET) at 1 μM or 10 μM concentrations for 10 minutes. The relaxation of each strip was measured by pressure transduction. The percent relaxation was determined relative to a control strip incubated with sodium nitroprusside (SNP) of the formula Na2[Fe(CN)5NO].2H2O, SNP is a compound that serves as a source of nitric oxide, a potent peripheral vasodilator. All experimental conditions were done in duplicate.
# rat mesenteric arteries [2] = experiment: Vasorelaxation of rat mesenteric arteries pre-contracted with U46619 or high KCl (myograph); assay type: cell-based
# Description: Additional experiments were performed wherein the pre-contraction of the mesenteric arteries was induced by pre-incubation with either 0.1-1.0 μM U46619 (9,11-dideoxy-9α,11α-methanoepoxy Prostaglandin F2α, […]). The pre-contracted arteries were exposed to 2 μM, 10 μM, 50 μM, 100 μM, 500 μM or 1000 μM of Compound 2 and the level of relaxation was measured by myograph. […] The amount of relaxation induced by Compound 2 was consistent between the vessels pre-contracted by U46619 and high KCl.
# rat arteries [3] = experiment: Ach-induced relaxation of isolated arteries from angiotensin II infused rats after in vitro pre-incubation (myograph); assay type: cell-based; conditions: arteries of ANG II infused rats, pre-incubation with 100 μM compound for 90 minutes; 2% without compound
# Description: The efficacy of 1-(1-nicotinoylpiperidin-4-yl)-3-(4-(trifluoromethoxy)phenyl)urea (Compound 2) and 1-adamantyl-3-(1-acetylpiperidin-4-yl)urea (Compound 3) to effect vasorelaxation of rat arteries in vitro and in vivo was examined. Rats were infused with angiotensin II (ANG II) for 4 weeks resulting in a reduced vasorelaxation response to acetylcholine (Ach), a neurotransmitter known to cause endothelium-dependent vasodilation of arteries. Ach-induced relaxation was measured by myograph.
# rat arteries [4] = experiment: Ach-induced relaxation of arteries from angiotensin II rats co-treated in vivo (myograph); conditions: ANG II rats
# Description: Additionally, in vivo attenuation of the effects of ANG II by Compound 2 or Compound 3 was examined. Rats were administered ANG II for 2 weeks and co-administered ANG II and either 10 mg of Compound 2 once a day by oral gavage or 30 mg of Compound 3 per day dose in drinking water for 2 weeks. Ach induced relaxation was measured by myograph.
# arteries from SHR = experiment: Aortic relaxation of isolated arteries from spontaneously hypertensive rats (SHR) to Ach or SNP after pre-incubation (myograph); assay type: cell-based, rat; conditions: pre-incubation with 100 μM compound for 90 minutes
# [5] = tested on: rat corpus cavernosual strips; conditions: cited from earlier work; for phenylephrine (PE) induced contraction of the cavernosual strips: preincubation with the inhibitor
# rat mesenteric arteries [6] = experiment: Direct vasorelaxation of rat mesenteric arteries with intact or denuded endothelium (wired myograph); assay type: cell-based
# Description: The efficacy of the 1-(1-nicotinoylpiperidin-4-yl)-3-(4-(trifluoromethoxy)phenyl)urea (Compound 2) to directly effect vasorelaxation of rat mesenteric arteries was examined. Rat mesenteric arteries with intact and denuded endothelium were isolated under microscope. Both intact and denuded arteries were exposed to various concentrations of Compound 2 (2 μM, 10 μM, 50 μM, 100 μM, 500 μM or 1000 μM) and the amount of relaxation was measured by a wired myograph.
compound,measurement,setting,value
"CS(=O)(=O)N1CCC(NC(=O)NC23CC4CC(CC(C4)C2)C3)CC1 [Compound 1, 1-adamantyl-3-(1-(methylsulfonyl)piperidin-4-yl)urea]",percent relaxation of corpus cavernosum strip,"[1]; 1 μM of both Compound 1 and 14,15-EET, relative to SNP control strip",15%
same,percent relaxation of corpus cavernosum strip,"[1]; 10 μM of both Compound 1 and 14,15-EET, relative to SNP control strip",22%
same,relaxation of corpus cavernosum strip,"[1]; Compound 1 alone, 1 μM or 10 μM, relative to SNP control strip",did not induce relaxation
"CCCCCC1OC1CC=CCC=CCC=CCCCC(=O)O (stereo not shown) [14,15-EET, 14,15-epoxyeicosatrienoic acid, reference compound]",relaxation of corpus cavernosum strip,"[1]; 14,15-EET alone, 1 μM",no effect
same,relaxation of corpus cavernosum strip,"[1]; 14,15-EET alone, 10 μM, in one of the two experiments",7%
same,EET-induced vasorelaxation in vessels precontracted with high KCl,rat mesenteric arteries [2]; pre-contracted with high KCl (100 mM per FIG. 3A),completely blocked
"CC(=O)N1CCC(NC(=O)NC23CC4CC(CC(C4)C2)C3)CC1 [Compound 3, 1-adamantyl-3-(1-acetylpiperidin-4-yl)urea]",percent relaxation with 100 nM Ach,rat arteries [3],70%
same,response to Ach-induced relaxation after in vivo co-administration,rat arteries [4]; 30 mg per day dose in drinking water for 2 weeks,significantly improved dose dependent response to Ach
same,percent relaxation induced by 10 μM Ach,arteries from SHR; vehicle 65%,90%
same,percent relaxation induced by 100 nM SNP,arteries from SHR; vehicle 70%,95%
epoxyeicosatrienoic acids [EETs],EC50,"[5]; normal, old and diabetic rat corpus cavernosual strips, read-out: apparent EC50 of relaxation",10 nM
same,Emax of relaxation,"[5]; normal, old and diabetic rat strips, depending on the system",30-70%
"O=C(Nc1ccc(OC(F)(F)F)cc1)NC1CCN(C(=O)c2cccnc2)CC1 [Compound 2, 1-(1-nicotinoylpiperidin-4-yl)-3-(4-(trifluoromethoxy)phenyl)urea]",percent relaxation of mesenteric arteries,rat mesenteric arteries [6]; 10 μM of compound,5%
same,percent relaxation of mesenteric arteries,rat mesenteric arteries [6]; 100 μM of compound,60%
same,relaxation of pre-contracted mesenteric arteries,"rat mesenteric arteries [2]; 2-1000 μM, pre-contracted by 0.1-1.0 μM U46619 or 127 mM KCl, consistent between both",dose dependent effect
same,percent relaxation with 100 nM Ach,rat arteries [3],30%
same,response to Ach-induced relaxation after in vivo co-administration,rat arteries [4]; 10 mg once a day by oral gavage for 2 weeks,significantly improved dose dependent response to Ach
CCCCc1ccc(N=CN)c(C)c1 [N′-(4-dutyl-2-methyl-phenyl)-foramidine],phenylephrine (PE) induced contraction of the cavernosual strips,[5],attenuated
CCCCCCCCCCCCNC(=O)NC1CCCCC1 [1-cyclodexy-3-dodecyl-urea],phenylephrine (PE) induced contraction of the cavernosual strips,[5],attenuated
